In patent US6395787B1, “Ocular hypotensive lipids” (Allergan Sales, Inc., priority 2000, dated 2002):

Experiments:
[1] = target: T1, recombinant feline FP receptor (Felis catus, UniProt A0ABI7XJ69); assay: Total inositol phosphate accumulation, HEK-293 cells with recombinant feline FP receptor; assay type: cell-based, cat; settings: read-out: E.C.50, total inositol phosphate accumulation
Description: Ten days after transfection, hygromycin B resistant clones were individually selected and transferred to a separate well on a 24 well plate. At confluence each clone was transferred to one well of a 6 well plate, and then expanded in a 10 cm dish. Cells were maintained under continuous hygromycin selection until use. The stable cat FP receptor transfectants were similarly prepared using […]. Again cells were grown to 50-60% confluency on 10 cm plates and the plasmid pCEP4, incorporating cDNA inserts for the feline FP receptor, was transfected using lipofectin. Hygromycin B selection was started 48 hr post-transfection. Eight days after transfection, hygromycin B resistant clones were selected and transferred to 24 well plates. Ca^2+ signaling studies on recombinant cat and human FP receptors were performed in an identical manner to that described for the CRL 1497 cell studies.
Receptor-mediated phosphoinositide (PI) hydrolysis was determined by measuring the accumulation of total inositol phosphates (IP) in cells preincubated with ^3H-myoinositol. Stable cell lines of HEK 293 cells expressing human or cat FP receptors were plated in 10 cm dishes (10^6 cells per dish in DMEM with 10% FBS). […] The eluate was mixed with 10 ml Aquasol scintillation fluid (Packard Instrument Co.) and total [^3H] inositol phosphates was determined by a liquid scintillation counter.

[2] = tested on: isolated rat aorta (TP receptor preparation); assay: Isolated rat aorta contraction; settings: 10^−6 and 10^−5 M
Description: (§1) Smooth muscle tension of isolated tissues was measured isometrically with force displacement transducers (Grass FT-03) and recorded on Grass Polygraphs (Models 7G and 79E). The organ baths contained Krebs solution maintained at 37° C. and gassed with 95% 02/5% CO2 to give a pH of 7.4. The Krebs solution had the following composition (mM): NaCl, 118.0; KCl, 4.7; KH2PO4, 1.2; CaCl2, 1.9; MgSO4, 1.18; NaHCO3, 25.0; glucose, 11.7; indomethacin, 0.001.
Adult Sprague Dawley rats weighing 180-220 grams were anesthetized by CO2 inhalation and then decapitated and exsanguinated. The thoracic aorta was removed and cleaned of any adhering tissue. The lumen was flushed to remove any blood. The aorta was dissected into three small segments of 5-8 mm length. Each segment was mounted under 2 g of tension in a jacketed 10 ml organ bath with the aid of two wire hooks placed through the lumen of the vessel. This arrangement allowed for measurement of contraction forces developed by the circular smooth muscle. The tissues were allowed to equilibrate for 1 hour before compounds were added cumulatively to the organ baths. The response to 10^−7 M U-46619 (a thromboxane mimetic) was determined at the beginning and end of each experiment as a reference. A 30-45 minute recovery period was allowed after complete wash-out of drug. Only one test compound was examined in each tissue.

[3] = tested on: dog ocular surface hyperemia; assay: Dog ocular surface hyperemia; assay type: in vivo; design: key: <1 trace 0.5; 1 mild 1; moderate 2; severe 3; settings: throughout the 24 hr experimental period, trace for vehicle
Description: Ocular surface hyperemia was visually assessed and scored according to a system typically used clinically.
Ocular surface hyperemia was evaluated at the same time points as intraocular pressure measurement. It should be noted that untreated dog eyes frequently have a pink/red tone. Thus, values of trace or even mild are not necessarily out of the normal range.

[4] = tested on: isolated guinea pig ileum (EP1 receptor preparation); assay: Isolated guinea pig ileum contraction
Description: as §1
The guinea pig ileum is an EP1 receptor preparation. An approximately 1.5 cm segment of guinea pig ileum was suspended in a jacketed organ bath under 1 g tension. Following a 1 hr equilibration period, a wash-out dose response curve for PGE2 was obtained. 30 min wash-out periods were allowed between doses. […] A final administration of PGE2 10^−6 M was given as a reference. Data were expressed as % maximal of the PGE2 response.

[5] = target: T1, recombinant feline FP receptor; assay: Radioligand binding competition vs 3H-17-phenyl PGF2α, recombinant feline FP receptor; design: species or system cat
Description: Plasma membrane preparations of HEK 293 cells stably transfected with the human or feline FP receptor were obtained as follows. Cells washed with TME buffer were scraped from the bottom of the flasks and homogenized for 30 sec using a Brinkman PT 10/35 polytron. TME buffer was added as necessary to achieve a 40 ml volume in the centrifuge tubes. […] The cell homogenate was centrifuged at 19,000 rpm for 20 min at 4-6° C. using a Beckman Ti-60 rotor. The pellet was then resuspended in TME buffer to provide a final protein concentration of 1 mg/ml, as determined by Biorad assay. […] Incubations were for 60 min at 25° C. and were terminated by the addition of 4 ml of ice-cold 50 mM TRIS-HCl followed by rapid filtration through Whatman GF/B filters and three additional 4 ml washes in a cell harvester (Brandel).

T1 sequence (A0ABI7XJ69 entry or part of it): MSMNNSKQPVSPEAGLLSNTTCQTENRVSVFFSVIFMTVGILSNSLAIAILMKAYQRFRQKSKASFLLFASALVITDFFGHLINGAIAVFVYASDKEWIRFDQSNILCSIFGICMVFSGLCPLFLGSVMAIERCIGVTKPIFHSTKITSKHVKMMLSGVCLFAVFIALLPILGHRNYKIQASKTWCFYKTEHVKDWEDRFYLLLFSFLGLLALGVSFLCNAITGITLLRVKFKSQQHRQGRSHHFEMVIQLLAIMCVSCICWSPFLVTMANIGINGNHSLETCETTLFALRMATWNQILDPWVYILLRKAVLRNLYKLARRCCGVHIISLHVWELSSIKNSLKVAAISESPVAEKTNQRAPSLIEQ

EC50 [1]: 0.524 µM
ocular surface hyperemia [3]: mild
affinity for the feline receptor ([5]; radioligand binding): only weak affinity
IC50 ([5]; read-out: inhibitory concentration50 (I.C.50), radioligand binding): 0.882 µM
Compound: CCCCC[C@H](O)/C=C/[C@@H]1[C@@H](C/C=C\CCCC(=O)NCCO)[C@@H](O)C[C@H]1O [PGF2α 1-ethanolamide, (5Z,8α,9α,11α,13E,15S)-9,11,15-trihydroxy-N-(2-hydroxyethyL)prosta-5,13-dien-1-amide]
effect on the isolated rat aorta [2]: Residual activity occurred at high doses
Emax at 10 µM ([4]; Cavia porcellus, 10^−5 M, reference contraction PGE2 10^−6 M, n = 4, read-out: % Maximal response mean χ ± SEM): 9.7 ± 4.2%
Emax at 1 µM ([4]; Cavia porcellus, 10^−6 M, reference contraction PGE2 10^−6 M, n = 4, read-out: % Maximal response mean χ ± SEM): 4 ± 2.6%
Emax at 0.1 µM ([4]; Cavia porcellus, 10^−7 M, reference contraction PGE2 10^−6 M, n = 4, read-out: % Maximal response mean χ ± SEM): 0%
Emax at 0.01 µM ([4]; Cavia porcellus, 10^−8 M, reference contraction PGE2 10^−6 M, n = 4, read-out: % Maximal response mean χ ± SEM): 0%
effect in the guinea pig ileum ([4]; compared with chick ileum): less effective
